# In patent US10919905B2, “Polymorphism for irinotecan free base” (ScinoPharm Taiwan, Ltd., priority 2019, dated 2021):
# Test: variable humidity x-ray powder diffraction (VH-XRPD), humidity effect on XRPD pattern
# Type: physicochemical
# Settings: FIG. 7
# Experimental: X-ray Powder Diffraction patterns were collected on a Bruker AXS D8 diffractometer using Cu Kα1 radiation (40 kV, 40 mA), θ-2θ goniometer, and divergence of 10 mm slits, a Ge monochromator and LynxEye detector. The representative PXRD pattern was collected under ambient condition.
# Irinotecan free base (119 g) and dichloromethane (1600 mL, 13.5 vol) were added to a 3 L flask at room temperature (20-30° C.) to obtain a first suspension mixture. Water (120 mL, 1 vol) and 5% sodium bicarbonate (480 mL, 4 vol) were added to the first mixture at room temperature. The suspension was filtered, and then the phases were allowed to separate, and an organic layer was saved. Water (600 mL, 5 vol) was added, and the phases were allowed to separate, and the organic layer was saved. The organic layer was concentrated to about 430 mL (3.6 vol). Ethyl acetate (1440 mL, 12 vol) was added to the concentrated organic layer at 25-35° C. to obtain a second mixture. The second mixture was concentrated to about 1665 mL (14 vol) then cooled to 15-25° C. to obtain a slurry mixture. The slurry mixture was filtered, and a wet cake was obtained and dried under the nitrogen to afford irinotecan free base form S3 (98.04 g). The Form S3 was studied by using variable humidity x-ray powder diffraction (VH-XRPD) to investigate the humidity effect on XRPD pattern (FIG. 7). […] The changes in diffraction peaks are reversible with the humidity being changed.
smiles,measurement,setting,value
"CCc1c2c(nc3ccc(OC(=O)N4CCC(N5CCCCC5)CC4)cc13)-c1cc3c(c(=O)n1C2)COC(=O)[C@]3(O)CC [Form S3, [1,4′-bipiperidine]-1′-carboxylic acid, (4S)-4,11-diethyl-3,4,12,14-tetrahydro-4-hydroxy-3,14-dioxo-1H-pyrano[3′,4′:6,7]indolizino[1,2-b]quinolin-9-yl ester]",humidity effect on XRPD pattern (change in diffraction peaks),sample exposed at 5-40% RH,no significant change in diffraction peaks was observed
same,humidity effect on XRPD pattern (change in diffraction peaks),sample exposed at higher than 60% RH,the diffraction peaks changed
same,reversibility of changes in diffraction peaks,with the humidity being changed,reversible
